Here are results for 20 compounds from article PMC9699089 (Pathogens, 2022).

Counter-ions that a name gives are not always drawn.

The subject of series [1] is L. donovani (MHOM/IN/00/DEVI) promastigotes. In words: In vitro antileishmanial activity on promastigotes, MTT assay. The settings on record: Leishmania donovani, 72 h incubation, mean +/- SD of three independent experiments. It is filed as cell-based. How it is done: L. donovani (MHOM/IN/00/DEVI) used in this study was provided by the CNR Leishmania (Montpellier, France). The effects of the tested compounds on the growth of L. donovani (MHOM/IN/00/DEVI) promastigotes were assessed by MTT assay. Briefly, promastigotes in log-phase in Schneider’s medium supplemented with 20% fetal calf serum (FCS), 2 mM L-glutamine and antibiotics (100 U/mL penicillin and 100 µg/mL streptomycin), were incubated at an average density of 10^6 parasites/mL in sterile 96-well plates with various concentrations of compounds previously dissolved in DMSO (final concentration less than 0.5% v/v), in duplicate. […] Duplicate assays were performed for each sample. After the 72 h incubation period at 27 °C, parasite metabolic activity was determined. Each well was microscopically examined for precipitate formation. To each well was added 10 µL of 10 mg/mL MTT [3-(4,5-dimethylthiazol-2-yl)-2,5-diphenyltetrazolium bromide)] solution followed by 4 h incubation time. The enzyme reaction was stopped by addition of 100 µL of 50% isopropanol/10% sodium dodecyl sulfate. Plates were vigorously shaken (300 rpm) for 10 min, and the absorbance was measured at 570 nm with 630 nm as reference wavelength in a BIOTEK ELx808 Absorbance Microplate Reader (Agilent Technologies, Les Ulis, France). […] IC50 of the parasite’s growth (half maximal inhibitory concentration or IC50 values) were then calculated from the obtained experimental results using a previously described regression program. IC50 values were calculated from three independent experiments.
(Tetrazolium dyes change colour on reduction, which living cells bring about.)

Series [2] relates to Plasmodium falciparum CQ-sensitive strain 3D7. In words: In vitro antiplasmodial activity, SYBR Green I fluorescence-based method, strain 3D7. In kind it is cell-based. As to conditions: CQ-sensitive strain 3D7, 48 h incubation, mean of three independent experiments, read-out: P. falciparum Strains IC50 Values 3D7. The protocol:
(§1) The in vitro antiplasmodial activities were tested over concentrations ranging from 39 nM to 40 µM against culture-adapted Plasmodium falciparum reference strains 3D7 and W2. […] These two strains are obtained from the collection of the National Museum of Natural History (Paris, France). The parasites were cultivated in RPMI medium (Sigma Aldrich, Lyon, France) supplemented with 0.5% Albumax I (Life Technologies Corporation, Paisley, UK), hypoxanthine (Sigma Aldrich), and gentamicin (Sigma Aldrich) with human erythrocytes and were incubated at 37 °C in a candle jar, as described previously. The P. falciparum drug susceptibility test was carried out in 96-well flat bottom sterile plates in a final volume of 250 µL. After 48 h incubation period with the drugs, quantities of DNA in treated and control cultures of parasites in human erythrocytes were quantified using the SYBR Green I (Sigma Aldrich) fluorescence-based method. Briefly, after incubation, plates were frozen at -20 °C until use. Plates were then thawed for 2 h at room temperature, and 100 µL of each homogenized culture was transferred to a well of a 96-well flat bottom sterile black plate (Nunc, Inc.) that contained 100 µL of the SYBR Green I lysis buffer (2xSYBR Green, 20 mM Tris base pH 7.5, 5 mM EDTA, 0.008% w/v saponin, 0.08% w/v Triton X-100). […] Plates were incubated for 1 h at room temperature and then read on a fluorescence plate reader (Tecan, Austria) using excitation and emission wavelengths of 485 and 535 nm, respectively.

Series [3] deals with T. brucei brucei AnTat 1.9. In words: In vitro antitrypanosomal activity, Alamar Blue assay. In kind it is cell-based, Trypanosoma brucei brucei. The settings on record: Trypanosoma brucei, slender bloodstream trypomastigotes, AnTat 1.9 strain; mean +/- SD of three independent experiments; read-out: Trypanosoma brucei brucei IC50 Values Trypanos Antat 1.9. The protocol:
The effects of the tested compounds on the growth of T. brucei brucei were assessed using an Alamar Blue® assay described by Räz et al. T. brucei brucei AnTat 1.9 ([…], Belgium) was cultured in MEM with Earle's salts, supplemented according to the protocol of Baltz et al. […] All doses were tested in duplicate. Appropriate controls treated with solvents 0.9% NaCl or DMSO or with suramin, pentamidine, eflornithine, and fexinidazole (reference drugs purchased from Sigma Aldrich and Fluorochem, UK) were added to each set of experiments. After 69 h incubation period at 37 °C, 10 μL of the viability marker Alamar Blue (Fisher) was added to each well, and the plates were incubated for 5 h. The plates were read in a PerkinElmer ENSPIRE (Germany) microplate reader using an excitation wavelength of 530 nm and an emission wavelength of 590 nm.
A general note: Alamar Blue is a resazurin reagent that responds to reducing activity.

The subject of series [4] is human duplex sequence FdxT. In words: FRET melting assay, duplex control FdxT. In kind it is binding. The settings on record: compound 2 μM, oligonucleotide 0.2 μM, K+ conditions. How it is done:
(§2) These were performed with dual-labeled oligonucleotides mimicking the Plasmodium telomeric sequences FPf1T [FAM-5′(GGGTTTA)3-GGG3′-TAMRA] and FPf8T [FAM-5′(GGGTTCA)3GGG3′-TAMRA], the Trypanosoma 9 and 11 chromosomic sequence FTrypBT (also named FEBR1T) [FAM-5′[…]3′-TAMRA], the human telomeric sequence F21T [FAM-(GGGTTA)3-GGG3′-TAMRA] and the human duplex sequence FdxT [FAM5′-[…]-hexaethyleneglycol-[…]3′-TAMRA] [27, 31, 47]. The oligonucleotides were pre-folded in 10 mM lithium cacodylate buffer (pH 7.2), with 10 mM KCl and 90 mM LiCl (K^+ condition). The FAM emissions were recorded at 516 nm using a 492-nm excitation wavelength in the absence and presence of a single compound as a function of temperature (25 to 95 °C) in 96-well microplates using a Stratagene MX3000P real-time PCR device at a rate of 1 °C∙min-1. Data were normalized between 0 and 1, and the required temperature for half-denaturation of oligonucleotides corresponding to the emission value of 0.5 was taken as the Tm. Each experiment was performed in duplicate with 0.2 µM of labeled oligonucleotide and 2 µM of compound under K^+ condition. For each compound, three independent experiments were carried out.

The subject of series [5] is Plasmodium telomeric sequence FPf1T G-quadruplex. In words: FRET melting assay, FPf1T. In kind it is binding, Plasmodium falciparum. As to conditions: compound 2 μM, oligonucleotide 0.2 μM, K+ conditions. How it is done:
as §2

Series [6] concerns human telomeric sequence F21T G-quadruplex. In words: FRET melting assay, F21T. As to conditions: compound 2 μM, oligonucleotide 0.2 μM, K+ conditions. In kind it is binding. How it is done:
as §2

Series [7] concerns Trypanosoma 9 and 11 chromosomic sequence FTrypBT (FEBR1T) G-quadruplex. In words: FRET melting assay, FtrypBT. As to conditions: compound 2 μM, oligonucleotide 0.2 μM, K+ conditions. It is filed as binding, Trypanosoma brucei brucei. How it is done:
as §2

In series [8] the test system is Plasmodium telomeric sequence FPf8T G-quadruplex. In words: FRET melting assay, FPf8T. In kind it is binding, Plasmodium falciparum. The settings on record: compound 2 μM, oligonucleotide 0.2 μM, K+ conditions. The protocol:
as §2

Series [9] deals with Plasmodium falciparum CQ-resistant strain W2. In words: In vitro antiplasmodial activity, SYBR Green I fluorescence-based method, strain W2. It is filed as cell-based. As to conditions: CQ-resistant strain W2, 48 h incubation, mean of three independent experiments, read-out: P. falciparum Strains IC50 Values W2. How it is done:
as §1

With `CN(C)CCNCc1cc(-c2ccccc2)c2ccc3c(-c4ccccc4)cc(CNCCN(C)C)nc3c2n1` (as salt: ammonium) [Compound 1a, 2,9-Bis[(2-dimethylaminoethyl)aminomethyl]-4,7-diphenyl-1,10-phenanthroline], the melting point fell in the range of 179 to 181 °C. For the compound `CN(C)CCCNCc1cc(-c2ccccc2)c2ccc3c(-c4ccccc4)cc(CNCCCN(C)C)nc3c2n1` (as salt: ammonium) [Compound 1b, 2,9-Bis[(3-dimethylaminopropyl)aminomethyl]-4,7-diphenyl-1,10-phenanthroline], the melting point is 161 to 163 °C. On the same count and under the same terms, the figure for `CN(C)CCCCNCc1cc(-c2ccccc2)c2ccc3c(-c4ccccc4)cc(CNCCCCN(C)C)nc3c2n1` (as salt: ammonium) [Compound 1c, 2,9-Bis[(4-dimethylaminobutyl)aminomethyl]-4,7-diphenyl-1,10-phenanthroline] is 111 to 113 °C; for `CN(C)CCCCCNCc1cc(-c2ccccc2)c2ccc3c(-c4ccccc4)cc(CNCCCCCN(C)C)nc3c2n1` (as salt: ammonium) [Compound 1d, 2,9-Bis[(5-dimethylaminopentyl)aminomethyl]-4,7-diphenyl-1,10-phenanthroline] it is 119 to 121 °C; for `CN1CCN(CCNCc2cc(-c3ccccc3)c3ccc4c(-c5ccccc5)cc(CNCCN5CCN(C)CC5)nc4c3n2)CC1` (as salt: ammonium) [Compound 1e] it is 185 to 187 °C.

The compound `CN1CCN(CCCNCc2cc(-c3ccccc3)c3ccc4c(-c5ccccc5)cc(CNCCCN5CCN(C)CC5)nc4c3n2)CC1` (as salt: ammonium) [Compound 1f] returned a melting point of 205 to 207 °C. Still for that read-out and setting: the figure for `CN1CCN(CCCCNCc2cc(-c3ccccc3)c3ccc4c(-c5ccccc5)cc(CNCCCCN5CCN(C)CC5)nc4c3n2)CC1` (as salt: ammonium) [Compound 1g] is 207 to 209 °C. Still for that read-out and setting: the figure for `c1ccc(-c2cc(CNCCN3CCOCC3)nc3c2ccc2c(-c4ccccc4)cc(CNCCN4CCOCC4)nc23)cc1` (as salt: ammonium) [Compound 1h] is 194 to 196 °C; for `c1ccc(-c2cc(CNCCCN3CCOCC3)nc3c2ccc2c(-c4ccccc4)cc(CNCCCN4CCOCC4)nc23)cc1` (as salt: ammonium) [Compound 1i] it is 174 to 176 °C; for `c1ccc(-c2cc(CNCCN3CCCCC3)nc3c2ccc2c(-c4ccccc4)cc(CNCCN4CCCCC4)nc23)cc1` (as salt: ammonium) [Compound 1j] it is 192 to 194 °C. Still for that read-out and setting: the figure for `c1ccc(-c2cc(CNCCCN3CCCCC3)nc3c2ccc2c(-c4ccccc4)cc(CNCCCN4CCCCC4)nc23)cc1` (as salt: ammonium) [Compound 1k] is 141 to 143 °C. Take `c1ccc(-c2cc(CNCCCN3CCCC3)nc3c2ccc2c(-c4ccccc4)cc(CNCCCN4CCCC4)nc23)cc1` (as salt: ammonium) [Compound 1l]: the melting point lay in the range of 145 to 147 °C. On the same count and under the same terms, the figure for `c1ccc(-c2cc(CNCCc3ccccn3)nc3c2ccc2c(-c4ccccc4)cc(CNCCc4ccccn4)nc23)cc1` (as salt: ammonium) [Compound 1m] is 165 to 167 °C. `c1ccc(-c2cc(CNCCc3cccnc3)nc3c2ccc2c(-c4ccccc4)cc(CNCCc4cccnc4)nc23)cc1` (as salt: ammonium) [Compound 1n] registered a melting point of 164 to 166 °C. The same measure, in the same setting: the figure for `c1ccc(-c2cc(CNCCc3ccncc3)nc3c2ccc2c(-c4ccccc4)cc(CNCCc4ccncc4)nc23)cc1` (as salt: ammonium) [Compound 1o] is 147 to 149 °C; for `c1ccc(-c2cc(CNCCCc3ccncc3)nc3c2ccc2c(-c4ccccc4)cc(CNCCCc4ccncc4)nc23)cc1` (as salt: ammonium) [Compound 1p] it is 99 to 101 °C.

Compound `C[C@@H]1[C@H](O)[C@@H](C)/C=C/C=C/C=C/C=C/C=C/C=C/C=C/[C@H](O[C@@H]2O[C@H](C)[C@@H](O)[C@H](N)[C@@H]2O)C[C@@H]2O[C@](O)(C[C@@H](O)C[C@@H](O)[C@H](O)CC[C@@H](O)C[C@@H](O)CC(=O)O[C@H]1C)C[C@H](O)[C@H]2C(=O)O` [Amphotericin B, reference compound] returned an IC50 in series [1] of 100 ± 40 nM. As to `CN(C)CCNCc1cc(-c2ccccc2)c2ccc3c(-c4ccccc4)cc(CNCCN(C)C)nc3c2n1` [Compound 1a, 2,9-Bis[(2-dimethylaminoethyl)aminomethyl]-4,7-diphenyl-1,10-phenanthroline], the IC50 in [2] was 1800 ± 670 nM; in series [3], 670 ± 30 nM; in series [9], 1000 ± 340 nM; in series [1], over 12500 nM. For the same compound, in [4], the “ΔTm FdxT” value is −0.3 °C. For the same compound, the “ΔTm FPf1T” value in series [5] turned out to be 1.8 °C. Besides, the “ΔTm F21T” value in [6] is 1.8 °C. Besides, in series [7], the “ΔTm FtrypBT” value stood at 1.9 °C. Moreover, the “ΔTm FPf8T” value in [8] amounted to 1.6 °C. As to `CSc1ccc(OCc2ncc([N+](=O)[O-])n2C)cc1` [Fexinidazole, reference compound], the half-maximal inhibitory concentration (IC50) in series [3] came to 590 ± 39 nM. In the case of `Cc1ccc(C(=O)Nc2ccc(S(=O)(=O)O)c3cc(S(=O)(=O)O)cc(S(=O)(=O)O)c23)cc1NC(=O)c1cccc(NC(=O)Nc2cccc(C(=O)Nc3cc(C(=O)Nc4ccc(S(=O)(=O)O)c5cc(S(=O)(=O)O)cc(S(=O)(=O)O)c45)ccc3C)c2)c1` [Suramine, reference compound], the IC50 in series [3] was found to be 30 ± 3 nM.

The term melting point denotes the temperature of the solid-liquid transition. What is called IC50 is the concentration that gives 50% inhibition.
